From US8921268B2, “Herbicidal composition” (Sumitomo Chemical Company, Limited, priority 2012, dated 2014)

How the values were obtained:
Ipomoea hederacea = assay: Pre-emergence soil spray pot test, herbicidal activity (Example 2); type: in vivo; details: scale 0 to 100; 20 g/ha; soil spray on day of sowing; ten days after spray treatment; greenhouse
Method: (§1) Ipomoea hederacea was sowed on a plastic pot filled with a soil. Following the sowing, on the day of the sowing, a mixed liquid of flumioxazin, isoxaflutole, and cyprosulfamide was sprayed uniformly so that the amounts of the agents might become those shown in Table 2 in a sprayed water amount of 500 L/ha. The mixed liquid of flumioxazin, isoxaflutole, and cyprosulfamide was prepared by dissolving the respective compounds in prescribed amounts separately in acetone containing 2% (w/v) of Tween 20 (surfactant, produced by Tokyo Chemical Industry Co., Ltd.), diluting the respective solutions with water and then combining them, followed by dilution with water so that the final acetone concentration of the spray liquid might be 10% by volume. After the spray treatment, the pot was carried into a greenhouse. Ten days after the spray treatment, the herbicidal activity to Ipomoea hederacea was evaluated.

Echinochloa crus-galli = assay: Pre-emergence soil spray pot test, herbicidal activity (Example 3); type: in vivo; details: scale 0 to 100; 2 g/ha; soil spray on day of sowing; twenty days after spray treatment; greenhouse
Method: as §1, with “Echinochloa crus-galli was” for “Ipomoea hederacea was”, “Table 3” for “Table 2”, “greenhouse. Twenty” for “greenhouse. Ten”, “to Echinochloa crus-galli” for “to Ipomoea hederacea”

**Q.** How did the “Herbicidal activity Ipomoea hederacea” value (Ipomoea hederacea) turn out when `C#CCN1C(=O)COc2cc(F)c(N3C(=O)C4=C(CCCC4)C3=O)cc21` [Flumioxazin] was run?
**A.** 80

**Q.** What about the “Herbicidal activity Echinochloa crus-galli” value (Echinochloa crus-galli) of the same molecule?
**A.** 10
